Paper PMC9090415, “Discovery of small molecule inhibitors of Plasmodium falciparum apicoplast DNA polymerase” (Journal of Enzyme Inhibition and Medicinal Chemistry, 2022)

Target: P. falciparum apicoplast DNA polymerase (Pf-apPOL) (Plasmodium falciparum, UniProt Q8ILY1)
Assay: Fluorescence-based high-throughput DNA polymerase assay (molecular beacon), primary screen and dose-response;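 on % inhibition ApPOL 90': test concentration in µM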;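 on % inhibition apPOL 180': test concentration in µM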
Type: biochemical
Procedure, shortened: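 Single-point screening used 10 µM compound with 20 nM polymerase, 20 nM hairpin substrate and 6 µM dNTPs for 90 min at 25 °C. Confirmatory titrations (2.5–80 µM) followed fluorescence at three times, and IC50 was derived from a fit including a cooperativity term n.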

[1] = supplemental file 2, sheet IC50 nontoxic compounds; Pf-apPOL

P. falciparum apicoplast DNA polymerase (Pf-apPOL), sequence (Q8ILY1 entry or part of it): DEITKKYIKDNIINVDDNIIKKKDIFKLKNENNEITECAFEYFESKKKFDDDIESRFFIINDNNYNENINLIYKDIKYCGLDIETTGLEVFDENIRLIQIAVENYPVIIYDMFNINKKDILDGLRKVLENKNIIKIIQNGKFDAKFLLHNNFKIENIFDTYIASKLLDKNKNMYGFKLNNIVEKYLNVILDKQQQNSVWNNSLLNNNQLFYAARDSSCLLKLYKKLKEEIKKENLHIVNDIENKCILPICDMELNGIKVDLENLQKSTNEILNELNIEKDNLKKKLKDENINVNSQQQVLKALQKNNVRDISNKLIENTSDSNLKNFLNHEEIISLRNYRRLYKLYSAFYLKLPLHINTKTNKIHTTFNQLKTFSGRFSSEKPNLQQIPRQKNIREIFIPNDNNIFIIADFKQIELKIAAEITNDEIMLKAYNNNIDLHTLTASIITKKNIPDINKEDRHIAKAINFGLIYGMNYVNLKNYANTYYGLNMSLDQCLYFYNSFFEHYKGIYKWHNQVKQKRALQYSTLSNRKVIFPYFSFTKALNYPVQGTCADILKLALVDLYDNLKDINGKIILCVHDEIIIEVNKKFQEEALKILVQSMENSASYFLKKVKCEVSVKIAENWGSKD

Cc1ccc(N2NC(=O)/C(=C\c3ccc(O)c([N+](=O)[O-])c3)C2=O)cc1Cl [KU0058427]
DNA Pol ('DNA Pol' of the 186 hits list (screen value); 90 min, 10 µM): 41
% inhibition Apo pol 10' (DRC-1; 10'; conc 2.5): 22.1005%
% inhibition Apo pol 10' (DRC-1; 10'; conc 5): 22.1201%
% inhibition Apo pol 10' (DRC-1; 10'; conc 10): 57.6403%
% inhibition Apo pol 10' (DRC-1; 10'; conc 20): 74.2262%
% inhibition Apo pol 10' (DRC-1; 10'; conc 40): 90.9483%
% inhibition Apo pol 10' (DRC-1; 10'; conc 80): 95.3494%
% inhibition Apol 90' (DRC-1; 90'; conc 2.5): 11.8681%
% inhibition Apol 90' (DRC-1; 90'; conc 5): 11.4719%
% inhibition Apol 90' (DRC-1; 90'; conc 10): 38.0061%
% inhibition Apol 90' (DRC-1; 90'; conc 20): 55.0808%
% inhibition Apol 90' (DRC-1; 90'; conc 40): 83.5201%
% inhibition Apol 90' (DRC-1; 90'; conc 80): 94.8173%
% inhibition apPOL 180' (DRC-1; 180'; conc 2.5): 4.9901%
% inhibition apPOL 180' (DRC-1; 180'; conc 5): 2.877%
% inhibition apPOL 180' (DRC-1; 180'; conc 10): 25.4818%
% inhibition apPOL 180' (DRC-1; 180'; conc 20): 38.9214%
% inhibition apPOL 180' (DRC-1; 180'; conc 40): 73.2638%
% inhibition apPOL 180' (DRC-1; 180'; conc 80): 93.9984%
% inhibition Apo pol 5' (DRC-2; 5'; conc 2.5): 11%
% inhibition Apo pol 5' (DRC-2; 5'; conc 5): 21%
% inhibition Apo pol 5' (DRC-2; 5'; conc 10): 35%
% inhibition Apo pol 5' (DRC-2; 5'; conc 20): 44%
% inhibition Apo pol 5' (DRC-2; 5'; conc 40): 54%
% inhibition Apo pol 5' (DRC-2; 5'; conc 80): 56%
% inhibition Apo pol 5' (DRC-2; 5'; concentration 2.5): 11%
% inhibition Apo pol 5' (DRC-2; 5'; concentration 20): 44%
% inhibition Apol 40' (DRC-2; 40'; conc 2.5): 11%
% inhibition Apol 40' (DRC-2; 40'; conc 5): 20%
% inhibition Apol 40' (DRC-2; 40'; conc 10): 34%
% inhibition Apol 40' (DRC-2; 40'; conc 20): 46%
% inhibition Apol 40' (DRC-2; 40'; conc 40): 64%
% inhibition Apol 40' (DRC-2; 40'; conc 80): 74%
% inhibition Apol 40' (DRC-2; 40'; concentration 2.5): 11%
% inhibition Apol 40' (DRC-2; 40'; concentration 5): 20%
% inhibition ApPOL 90' (DRC-2; 90'; conc 2.5): 9%
% inhibition ApPOL 90' (DRC-2; 90'; conc 5): 19%
% inhibition ApPOL 90' (DRC-2; 90'; conc 10): 28%
% inhibition ApPOL 90' (DRC-2; 90'; conc 20): 44%
% inhibition ApPOL 90' (DRC-2; 90'; conc 40): 65%
% inhibition ApPOL 90' (DRC-2; 90'; conc 80): 78%
% inhibition ApPOL 90' (DRC-2; 90'; concentration 2.5): 9%
% inhibition ApPOL 90' (DRC-2; 90'; concentration 20): 44%
% inhibition apPOL 180' (DRC-2; 180'; conc 2.5): 2.37%
% inhibition apPOL 180' (DRC-2; 180'; conc 5): 9%
% inhibition apPOL 180' (DRC-2; 180'; conc 10): 20%
% inhibition apPOL 180' (DRC-2; 180'; conc 20): 33%
% inhibition apPOL 180' (DRC-2; 180'; conc 40): 57%
% inhibition apPOL 180' (DRC-2; 180'; conc 80): 80%
% inhibition apPOL 180' (DRC-2; 180'; concentration 5): 9%
% inhibition apPOL 180' (DRC-2; 180'; concentration 10): 20%
DNA Pol (primary screen value, "DNA Pol"; 90 min, 10 µM): 41

NS(=O)(=O)c1ccc(NC(=O)c2ccc(N3C(=O)CCC3=O)cc2)cc1 [KU0025331]
% inhibition Apo pol 10' (DRC-1; 10'; concentration 2.5): 3.929%
% inhibition Apo pol 10' (DRC-1; 10'; concentration 5): 17.6449%
% inhibition Apo pol 10' (DRC-1; 10'; concentration 10): 35.7836%
% inhibition Apo pol 10' (DRC-1; 10'; concentration 20): 51.7902%
% inhibition Apo pol 10' (DRC-1; 10'; concentration 40): 82.955%
% inhibition Apo pol 10' (DRC-1; 10'; concentration 80): 86.1018%
% inhibition Apol 90' (DRC-1; 90'; concentration 2.5): -2.372%
% inhibition Apol 90' (DRC-1; 90'; concentration 5): 7.062%
% inhibition Apol 90' (DRC-1; 90'; concentration 10): 19.6888%
% inhibition Apol 90' (DRC-1; 90'; concentration 20): 33.4355%
% inhibition Apol 90' (DRC-1; 90'; concentration 40): 69.7509%
% inhibition Apol 90' (DRC-1; 90'; concentration 80): 83.6402%
% inhibition apPOL 180' (DRC-1; 180'; concentration 2.5): -7.42%
% inhibition apPOL 180' (DRC-1; 180'; concentration 5): -1.0806%
% inhibition apPOL 180' (DRC-1; 180'; concentration 10): 6.657%
% inhibition apPOL 180' (DRC-1; 180'; concentration 20): 15.4098%
% inhibition apPOL 180' (DRC-1; 180'; concentration 40): 52.8887%
% inhibition apPOL 180' (DRC-1; 180'; concentration 80): 79.9389%
% inhibition Apo pol 5' (DRC-2, 5', concentration 2.5 (unit not given)): 8%
% inhibition Apol 40' (DRC-2, 40', concentration 2.5 (unit not given)): 8%
% inhibition Apol 40' (DRC-2, 40', concentration 40 (unit not given)): 67%
% inhibition ApPOL 90' (DRC-2, 90', concentration 80 (unit not given)): 67%
% inhibition Apo pol 5' (DRC-2; 5'; concentration 2.5): 8%
% inhibition Apo pol 5' (DRC-2; 5'; concentration 5): 15%
% inhibition Apo pol 5' (DRC-2; 5'; concentration 10): 23%
% inhibition Apo pol 5' (DRC-2; 5'; concentration 20): 40%
% inhibition Apo pol 5' (DRC-2; 5'; concentration 40): 46%
% inhibition Apo pol 5' (DRC-2; 5'; concentration 80): 37%
% inhibition Apol 40' (DRC-2; 40'; concentration 2.5): 8%
% inhibition Apol 40' (DRC-2; 40'; concentration 5): 13%
% inhibition Apol 40' (DRC-2; 40'; concentration 10): 21%
% inhibition Apol 40' (DRC-2; 40'; concentration 20): 47%
% inhibition Apol 40' (DRC-2; 40'; concentration 40): 67%
% inhibition Apol 40' (DRC-2; 40'; concentration 80): 64%
% inhibition ApPOL 90' (DRC-2; 90'; concentration 2.5): 5.53%
% inhibition ApPOL 90' (DRC-2; 90'; concentration 5): 9%
% inhibition ApPOL 90' (DRC-2; 90'; concentration 10): 17%
% inhibition ApPOL 90' (DRC-2; 90'; concentration 20): 42%
% inhibition ApPOL 90' (DRC-2; 90'; concentration 40): 68%
% inhibition ApPOL 90' (DRC-2; 90'; concentration 80): 67%
% inhibition apPOL 180' (DRC-2; 180'; concentration 2.5): -4.26%
% inhibition apPOL 180' (DRC-2; 180'; concentration 5): -1.74%
% inhibition apPOL 180' (DRC-2; 180'; concentration 10): 4.49%
% inhibition apPOL 180' (DRC-2; 180'; concentration 20): 26%
% inhibition apPOL 180' (DRC-2; 180'; concentration 40): 65%
% inhibition apPOL 180' (DRC-2; 180'; concentration 80): 72%
DNA Pol (primary screen value of the 186 hits; unit not given; 90 min, 10 µM): 32
DNA Pol (primary screen value, head "DNA Pol", unit not given; 90 min, 10 µM): 32

O=C(Nc1ncc([N+](=O)[O-])s1)c1ccc2c(c1)C(=O)N(N1C(=O)c3ccccc3C1=O)C2=O [KU0026378]
DNA Pol ('DNA Pol'; screening value, unit not given; 90 min, 10 µM): 40
% inhibition Apo pol 10' (DRC-1; 10'; concentration 2.5): 7.75%
% inhibition Apo pol 10' (DRC-1; 10'; concentration 5): 18.061%
% inhibition Apo pol 10' (DRC-1; 10'; concentration 10): 26.4428%
% inhibition Apo pol 10' (DRC-1; 10'; concentration 20): 47.1491%
% inhibition Apo pol 10' (DRC-1; 10'; concentration 40): 69.5136%
% inhibition Apo pol 10' (DRC-1; 10'; concentration 80): 81.7904%
% inhibition Apol 90' (DRC-1; 90'; concentration 2.5): 0.8654%
% inhibition Apol 90' (DRC-1; 90'; concentration 5): 10.2523%
% inhibition Apol 90' (DRC-1; 90'; concentration 10): 17.1111%
% inhibition Apol 90' (DRC-1; 90'; concentration 20): 31.377%
% inhibition Apol 90' (DRC-1; 90'; concentration 40): 49.9666%
% inhibition Apol 90' (DRC-1; 90'; concentration 80): 63.8905%
% inhibition apPOL 180' (DRC-1; 180'; concentration 2.5): -2.09%
% inhibition apPOL 180' (DRC-1; 180'; concentration 5): 6.201%
% inhibition apPOL 180' (DRC-1; 180'; concentration 10): 13.1954%
% inhibition apPOL 180' (DRC-1; 180'; concentration 20): 24.5599%
% inhibition apPOL 180' (DRC-1; 180'; concentration 40): 40.1737%
% inhibition apPOL 180' (DRC-1; 180'; concentration 80): 53.133%
% inhibition Apo pol 5' (DRC-2, 5', concentration 2.5): 8%
% inhibition Apo pol 5' (DRC-2, 5', concentration 5): 8.46%
% inhibition Apo pol 5' (DRC-2, 5', concentration 10): 25%
% inhibition Apo pol 5' (DRC-2, 5', concentration 20): 36%
% inhibition Apo pol 5' (DRC-2, 5', concentration 40): 51%
% inhibition Apo pol 5' (DRC-2, 5', concentration 80): 55%
% inhibition Apol 40' (DRC-2, 40', concentration 2.5): 9%
% inhibition Apol 40' (DRC-2, 40', concentration 5): 9%
% inhibition Apol 40' (DRC-2, 40', concentration 10): 26%
% inhibition Apol 40' (DRC-2, 40', concentration 20): 40%
% inhibition Apol 40' (DRC-2, 40', concentration 40): 62%
% inhibition Apol 40' (DRC-2, 40', concentration 80): 73%
% inhibition ApPOL 90' (DRC-2, 90', concentration 2.5): 8%
% inhibition ApPOL 90' (DRC-2, 90', concentration 5): 9%
% inhibition ApPOL 90' (DRC-2, 90', concentration 10): 26%
% inhibition ApPOL 90' (DRC-2, 90', concentration 20): 39%
% inhibition ApPOL 90' (DRC-2, 90', concentration 40): 63%
% inhibition ApPOL 90' (DRC-2, 90', concentration 80): 75%
% inhibition apPOL 180' (DRC-2, 180', concentration 2.5): 6%
% inhibition apPOL 180' (DRC-2, 180', concentration 5): 9%
% inhibition apPOL 180' (DRC-2, 180', concentration 10): 24%
% inhibition apPOL 180' (DRC-2, 180', concentration 20): 36%
% inhibition apPOL 180' (DRC-2, 180', concentration 40): 59%
% inhibition apPOL 180' (DRC-2, 180', concentration 80): 74%
% inhibition Apo pol 5' (conc 2.5 (unit not given); 5'; DRC-2): 8%
% inhibition Apol 40' (conc 2.5 (unit not given); 40'; DRC-2): 9%
% inhibition ApPOL 90' (conc 2.5 (unit not given); 90'; DRC-2): 8%
% inhibition Apol 40' (conc 5 (unit not given); 40'; DRC-2): 9%
% inhibition ApPOL 90' (conc 5 (unit not given); 90'; DRC-2): 9%
% inhibition apPOL 180' (conc 5 (unit not given); 180'; DRC-2): 9%
% inhibition Apol 40' (conc 10 (unit not given); 40'; DRC-2): 26%
% inhibition ApPOL 90' (conc 10 (unit not given); 90'; DRC-2): 26%
% inhibition Apo pol 5' (conc 20 (unit not given); 5'; DRC-2): 36%
% inhibition apPOL 180' (conc 20 (unit not given); 180'; DRC-2): 36%
DNA Pol (primary screen hit value, DNA Pol (186 hits); 90 min, 10 µM): 40

CC(C)CCNC(=O)c1cnn2c(O)cc(CSc3ccc(Cl)cc3)nc12 [Molecule 101]
IC50 [1]: 9.74 µM

CCOc1cccc2cc(C(=O)Nc3nnc(-c4ccno4)o3)oc12 [Molecule 28]
IC50 [1]: 7.04 µM
